This is an account of results in publication PMC2217464 (The Journal of General Physiology, 2004).

For orientation: IC50 means the concentration that gives 50% inhibition.

Residue numbers refer to the chain shown, from its start.

Test [1] addresses T1, mouse bestrophin-2 (mBest2) (Mus musculus, UniProt Q8BGM5, S79C).
T1 sequence (Q8BGM5 1-508 S79C): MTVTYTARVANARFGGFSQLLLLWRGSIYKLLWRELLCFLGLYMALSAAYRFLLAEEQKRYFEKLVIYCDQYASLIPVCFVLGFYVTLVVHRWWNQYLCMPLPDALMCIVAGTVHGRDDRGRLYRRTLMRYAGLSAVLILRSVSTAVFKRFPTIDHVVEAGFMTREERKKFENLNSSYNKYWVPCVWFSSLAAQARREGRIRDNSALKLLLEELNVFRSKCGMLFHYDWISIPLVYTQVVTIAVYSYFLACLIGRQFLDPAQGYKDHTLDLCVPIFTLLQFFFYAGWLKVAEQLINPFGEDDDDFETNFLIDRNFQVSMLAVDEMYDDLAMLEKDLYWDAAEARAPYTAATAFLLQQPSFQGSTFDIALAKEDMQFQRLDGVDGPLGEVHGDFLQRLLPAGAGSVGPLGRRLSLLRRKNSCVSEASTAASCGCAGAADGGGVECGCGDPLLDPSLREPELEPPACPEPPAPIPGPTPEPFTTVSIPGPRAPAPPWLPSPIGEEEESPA
Briefly: whole-cell patch clamp, block of Cl- current. The class given is cell-based. On the technique in general: The patch-clamp technique gives a direct electrical read-out from membranes.

For test [2], the target named is T2, mouse bestrophin-2 (mBest2) (Mus musculus, UniProt Q8BGM5).
T2 sequence (Q8BGM5 1-508): T1 sequence (Q8BGM5 1-508 S79C) with C79S
As to the kind of experiment: whole-cell patch clamp, block of Cl- current. Format: cell-based.

`O=S(=O)(O)c1cc(N=C=S)ccc1/C=C/c1ccc(N=C=S)cc1S(=O)(=O)O` [DIDS]: the IC50 in test [1] was found to be 14.6 ± 3.6 µM; in test [2], 3.1 ± 0.3 µM.
Molecule `N#CS` [SCN^−] registered a 50% inhibitory concentration (IC50) in test [2] of 12000 µM.
